Reference: patent publication US20130281420A1, “Ophthalmic Formulations of Squalamine” (Ohr Pharmaceutical, Inc., priority 2010, published 2013)
Where a name gives a salt, the structure may show the parent alone. Read-outs that look alike come from different tables or passages of the source.

Legend:
[1] = tested on: AMD; details: cited from earlier work
[2] = Ocular biodistribution study following ocular administration; assay type: in vivo, Dutch-Belted rabbits; details: formulation G, 0.08 mg/eye once; for concentration at 15 min / concentration at 30 min / concentration at 3 h: male, Dutch-Belted, rabbit, posterior sclera and choroid, other: ocular administration, 0.08 mg/eye
Experimental: The objective of this study was to determine the ocular biodistribution of squalamine lactate formulation G (see composition above) when given once by ocular administration to male Dutch-Belted rabbits.
The study design was as follows:
Body weight measurements were taken for randomization/dose calculation purposes. […] Following dose administration, blood samples were collected at specified time points and plasma was prepared. After blood sample collection, the animals were euthanized and a necropsy was performed to collect the following ocular tissues: aqueous humor, vitreous humor, sensory retina and choroid/sclera.

[3] = tested on: human vascular endothelial cells (HUVEC); assay: Inhibition of VEGF induced tube formation by HUVEC; assay type: cell-based; details: 50 nM (tested at 50, 100, 200 nM), 24 hrs, Matrigel with VEGF
Experimental: Squalamine lactate was mixed in solution at 50, 100 or 200 nM concentration with a suspension of human vascular endothelial cells (HUVEC). The suspension was then immediately plated on Matrigel which contained multiple growth factors including vascular endothelial cell growth factor (VEGF). The plates were incubated at 37° C. in an atmosphere of […] for 24 hrs and then the plates were photographed.

[4] = any animals (15 min, 30 min, 3 hrs)
[5] = mean of eyes, read-out: Squalamine in posterior sclera and choroid, Mean

For `CC(C)[C@@H](CC[C@@H](C)[C@H]1CC[C@H]2[C@@H]3[C@H](O)C[C@H]4C[C@@H](NCCCNCCCCN)CC[C@]4(C)[C@H]3CC[C@]12C)OS(=O)(=O)O` [Squalamine, ([6-[(3S,5R,7R,10S,13R,145)-3-[3-(4-aminobutylamino)propylamino]-7-hydroxy-10,13-dimethyl-2,3,4,5,6,7,8,9,11,12,14,15,16,17-tetradecahydro-1H-cyclopenta[a]phenanthren-17-yl]-2-methylheptan-3-yl]hydrogen sulfate)], the visual acuity ([1]; IV infusion, after the first four to five weeks of administration) is given as “good gains in visual acuity”, the plasma half-life ([1]; human subjects, 40 mg dose, intravenous infusion) is given as “short” and the “adverse reactions of intravenous dosing” value ([1]; intravenous dosing, human) is given as “local infusion-site reactions”. The “Squalamine in posterior sclera and choroid” value ([2]; 30 min, An#105 left eye) was “BQL”, the “Level of squalamine in aqueous humor” value [2, 4] was “No quantifiable levels” and the “Level of squalamine in vitreous humor” value [2, 4] was “No quantifiable levels”. The concentration at 15 min ([2]; An#101 left eye, read-out: Squalamine in posterior sclera and choroid) was 101 ng/g, the concentration at 15 min ([2]; An#101 right eye, read-out: Squalamine in posterior sclera and choroid) was 26.6 ng/g and the concentration at 15 min ([2]; An#102 left eye, read-out: Squalamine in posterior sclera and choroid) was 44.2 ng/g. For the same compound, the concentration at 15 min ([2]; An#102 right eye, read-out: Squalamine in posterior sclera and choroid) was 145 ng/g, the concentration at 15 min ([2]; An#103 left eye, read-out: Squalamine in posterior sclera and choroid) was 195 ng/g and the concentration at 15 min ([2]; An#103 right eye, read-out: Squalamine in posterior sclera and choroid) was 31.7 ng/g. It also gave a concentration at 15 min [2, 5] of 90.6 ng/g, a concentration at 30 min ([2]; 30 min, An#104 left eye, read-out: Squalamine in posterior sclera and choroid) of 54.4 ng/g and a concentration at 30 min ([2]; 30 min, An#104 right eye, read-out: Squalamine in posterior sclera and choroid) of 121 ng/g. The concentration at 30 min ([2]; 30 min, An#105 right eye, read-out: Squalamine in posterior sclera and choroid) was 78.9 ng/g, the concentration at 30 min ([2]; 30 min, An#106 left eye, read-out: Squalamine in posterior sclera and choroid) was 96.7 ng/g and the concentration at 30 min ([2]; 30 min, An#106 right eye, read-out: Squalamine in posterior sclera and choroid) was 94.1 ng/g. For the same compound, the concentration at 30 min ([2]; 30 min, mean of eyes, read-out: Squalamine in posterior sclera and choroid, Mean) was 89 ng/g, the concentration at 3 h ([2]; An#107 left eye, read-out: Squalamine in posterior sclera and choroid) was 23.9 ng/g and the concentration at 3 h ([2]; An#107 right eye, read-out: Squalamine in posterior sclera and choroid) was 149 ng/g. For the same compound, the concentration at 3 h ([2]; An#108 left eye, read-out: Squalamine in posterior sclera and choroid) was 26 ng/g, the concentration at 3 h ([2]; An#108 right eye, read-out: Squalamine in posterior sclera and choroid) was 34.6 ng/g and the concentration at 3 h ([2]; An#109 left eye, read-out: Squalamine in posterior sclera and choroid) was 71.8 ng/g. For the same compound, the concentration at 3 h ([2]; An#109 right eye, read-out: Squalamine in posterior sclera and choroid) was 51.1 ng/g, the concentration at 3 h [2, 5] was 59.4 ng/g and the “HUVEC tube formation on Matrigel” value [3] was “disrupts tube formation”.
